Non-standard residues stand in square brackets, D forms with d. Primed or numbered codes have the meaning given here. No end group written: not given here. *: point of attachment. Myristoyl = CCCCCCCCCCCCCC(=O)*; PEG24′ = not defined here; Nle = CCCC[C@H](N)C(=O)O
Key:
[1] = tested on: Factor VII; test: Knockdown of plasma Factor VII activity in rats after co-injection of CDM-NAG masked melittin and cholesterol-Factor VII siRNA; format: in vivo; settings: 5× CDM-NAG, 3 mg/kg cholesterol-Factor VII siRNA
Protocol: (§1) RNAi polynucleotide conjugates and masked melittin peptides were synthesized as described above. Six to eight week old mice (strain C57BL/6 or ICR, ˜18-20 g each) were obtained from Harlan Sprague Dawley (Indianapolis Ind.). Mice were housed at least 2 days prior to injection. Feeding was performed ad libitum with Harlan Teklad Rodent Diet (Harlan, Madison Wis.). Mice were injected with 0.2 mL solution of delivery peptide and 0.2 mL siRNA conjugates into the tail vein. For simultaneous injection of delivery peptide and siRNA, the siRNA-conjugate was added to modified peptide prior to injection and the entire amount was injected. The composition was soluble and nonaggregating in physiological conditions. Solutions were injected by infusion into the tail vein.
Wistar Han rats, 175-200 g were obtained from Charles River (Wilmington, Mass.). Rats were housed at least 1 week prior to injection. Injection volume for rats was typically 1 ml.
Plasma samples from animals were prepared by collecting blood (9 volumes) (by submandibular bleeding for mice or from jugular vein for rats) into microcentrifuge tubes containing 0.109 mol/L sodium citrate anticoagulant (1 volume) following standard procedures. F7 activity in plasma is measured with a chromogenic method using a BIOPHEN VII kit (Hyphen BioMed/Aniara, Mason, Ohio) following manufacturer's recommendations. Absorbance of colorimetric development was measured using a Tecan Safire2 microplate reader at 405 nm.
The indicated melittin was reversibly modified with 5×CDM-NAG as described above. The indicated amount of melittin, in mg per kg animal weight, was then co-injected with the 3 mg/kg cholesterol— Factor VII siRNA. Effect on Factor VII levels were determined as described above.

[2] = tested on: ApoB; test: Knockdown of endogenous serum ApoB in mice after co-injection of masked melittin delivery peptide and ApoB siRNA-cholesterol conjugate; format: in vivo; settings: for % knockdown: 200 μg siRNA; for percent knockdown: CDM-NAG (5×)
Protocol: as §1
Mice were fasted for 4 h (16 h for rats) before serum collection by submandibular bleeding. For rats blood was collected from the jugular vein. Serum ApoB protein levels were determined by standard sandwich ELISA methods. Briefly, a polyclonal goat anti-mouse ApoB antibody and a rabbit anti-mouse ApoB antibody (Biodesign International) were used as capture and detection antibodies respectively. An HRP-conjugated goat anti-rabbit IgG antibody (Sigma) was applied afterwards to bind the ApoB/antibody complex. Absorbance of tetramethyl-benzidine (TMB, Sigma) colorimetric development was then measured by a Tecan Safire2 (Austria, Europe) microplate reader at 450 nm.
Melittin was reversibly modified with CDM-NAG as described above. The indicated amount of melittin was then co-injected with the 200 μg ApoB siRNA-cholesterol conjugate. Effect on ApoB levels were determined as described above.
Melittin was reversibly modified with CDM-NAG as described above. The indicated amount of melittin was then co-injected with 50 μg ApoB siRNA-cholesterol conjugate. Effect on ApoB levels were determined as described above.
Melittin was reversibly modified with CDM-NAG (5×) as described above. The indicated amount of melittin was then co-injected with the indicated amount of ApoB siRNA-cholesterol conjugate. Effect on ApoB levels were determined as described above.
Melittin was reversibly modified with the indicated amount of CDM-NAG as described above. 50 μg melittin was then co-injected with the 100 μg ApoB siRNA-cholesterol conjugate. Effect on ApoB levels were determined as described above.
Melittin peptides having the indicated sequence were reversibly modified with CDM-NAG (5×) as described above. The indicated amount of melittin was then co-injected with the indicated amount of ApoB siRNA-cholesterol conjugate. Effect on ApoB levels were determined as described above.
Melittin peptides containing the indicated PEG amino terminal modifications were synthesized as described above. The PEG amino terminal modified melittin peptides were then reversibly modified with 5×CDM-NAG as described above. The indicated amount of Melittin was then co-injected with the 100-200 μg ApoB siRNA-cholesterol conjugate. Effect on ApoB levels were determined as described above. Addition of PEG less than 5 kDa in size decreased toxicity of the melittin peptides.

[3] = peptide 1 (mg per kg animal weight), relative to isotonic glucose injected animals
[4] = amount in column 'siRNA' 400 μg
[5] = 50 μg peptide per mouse, 100 μg siRNA per mouse
[6] = 100 μg peptide per mouse, 100 μg siRNA per mouse

Substance: GIGAILKVLATGLPTLISWIKNKRKQ (listed as Apis florea) [Seq ID 1, Apis florea melittin]
- Factor VII knockdown [1, 3]: 30
- Factor VII knockdown ([1]; peptide 3 (mg per kg)): 83
- Factor VII knockdown ([1]; peptide 10 (mg per kg)): 90
- Factor VII knockdown ([1]; peptide 20 (mg per kg)): 95
- % knockdown ([2]; 5× CDM-NAG, 100 μg peptide, relative to isotonic glucose injected animals): 25%
- % knockdown ([2]; 5× CDM-NAG, 200 μg peptide): 51%
- % knockdown ([2]; 5× CDM-NAG, 400 μg peptide): 78%
- % knockdown ([2]; 5× CDM-NAG, 800 μg peptide): 87%
- % knockdown ([2]; 5× CDM-NAG, 1200 μg peptide): 94%
- % knockdown ([2]; 5× CDM-PEG, 800 μg peptide, relative to isotonic glucose injected animals): 0%
- percent knockdown ([2]; amount in column 'siRNA' 200 μg): 90%
- percent knockdown [2, 4]: 80%

Substance: Mel-Cys (Seq ID 62): melittin peptide derivative (GIGAILKVLATGLPTLISWIKNKRKQC; C-terminal Cys; melittin-like peptide derive from Apis florea)
- percent knockdown ([2]; 400 μg peptide per mouse, 100 μg siRNA per mouse): 83%

Substance: Mel-NH2 (Seq ID 116): melittin peptide derivative (GIGAILKVLATGLPTLISWIKNKRKQ-NH2)
- percent knockdown [2, 5]: 86%

Substance: N22T Mel-NH2 (Seq ID 15): melittin peptide derivative (GIGAILKVLATGLPTLISWIKTKRKQ-NH2)
- percent knockdown [2, 5]: 34%

Substance: PEG24-GKLK-Mel G1L (Seq ID 59): melittin peptide derivative ([PEG24′]GKLKLIGAILKVLATGLPTLISWIKNKRKQ)
- percent knockdown [2, 5]: 85%

Substance: PEG(5k)-KLK-dMel G1Y (Seq ID 56): melittin peptide derivative ({PEG 5k}-KLK[dY][dI]G[dA][dI][dL][dK][dV][dL][dA][dT]G[dL][dP][dT][dL][dI][dS][dW][dI][dK][dN][dK][dR][dK][dQ])
- percent knockdown ([2]; 300 μg peptide per mouse, 100 μg siRNA per mouse): 72%

Substance: QKRKNKIWSILTPLGTALVKLIAGIG-NH2 [Seq ID 96]
- percent knockdown ([2]; siRNA 20 mg/kg): 70%

Substance: QQKKKKIWSILAPLGTTLVKLVAGIC-NH2 [Seq ID 93]
- percent knockdown ([2]; siRNA 20 mg/kg): 70%

Substance: QQRKRKIWSILAALGTTLVKLVAGIC-NH2 (also: retro-inverso, methoxy, position not given here) [Seq ID 95 Retroinverso Methoxy]
- percent knockdown ([2]; amount in column 'siRNA' 30 mg/kg): 39%

Substance: QQRKRKIWSILAALGTTLVKLVAGIC-NH2 [Seq ID 95]
- percent knockdown ([2]; siRNA 20 mg/kg): 91%

Substance: QQRKRKIWSILAPLGTTLVKLVAGIC-(N-PDP-PE)-NH2 (not fully specified (some residues, C-terminus); also: D-amino acids, positions not given here) [PE = dioleolyl-phosphatidyl-ethanolamine]
- percent knockdown ([2]; 400 μg peptide per mouse, 200 μg siRNA per mouse): 55%

Substance: QQRKRKIWSILAPLGTTLVKLVAGIC-NH2 [Seq ID 92]
- percent knockdown [2, 4]: 85%
- percent knockdown ([2]; siRNA 20 mg/kg): 94%

Substance: T11A, T15A, S18A (Seq ID 40): melittin peptide derivative (GIGAILKVLACGLPALIAWIKNKRKQ; melittin-like peptide derive from Apis florea)
- percent knockdown [2, 5]: 38%

Substance: T11G, T15G, S18G (Seq ID 39): melittin peptide derivative (GIGAILKVLACGLPGLIGWIKNKRKQ; melittin-like peptide derive from Apis florea)
- percent knockdown [2, 5]: 32%

Substance: YIGAILKVLATGLPTLISWIKNKRKQ (melittin-like peptide derive from Apis florea) [Seq ID 11]
- Factor VII knockdown [1, 3]: 93
- Factor VII knockdown ([1]; peptide 3 (mg per kg)): 97

Substance: dimethyl-dMel I2L, I5L, T11C, I17L, I20L dMel (Seq ID 46): melittin peptide derivative (dimethyl-GLGALLKVLACGLPTLLSWLKNKRKQ; not fully specified (some residues); also: D-amino acids, positions not given here)
- percent knockdown [2, 6]: 87%

Substance: dimethyl-dMel I2Nle, I5Nle, T11C, I17Nle, I20Nle dMel (Seq ID 47): melittin peptide derivative (G[Nle]GA[Nle]LKVLACGLPTL[Nle]SW[Nle]KNKRKQ; also: dimethyl, site not given here, D-amino acids, positions not given here)
- percent knockdown [2, 6]: 78%

Substance: myristoyl-CKLK-Mel G1L (Seq ID 111): melittin peptide derivative (Myristoyl-CKLKLIGAILKVLATGLPTLISWIKNKRKQ)
- percent knockdown ([2]; 80 μg peptide per mouse, 100 μg siRNA per mouse): 96%
